Key:
Stromelysin-1 = Stromelysin-1 (Homo sapiens, UniProt P08254); experiment: Inhibitory concentration against human matrix metalloprotease-3 (MMP-3)
Neutrophil collagenase = Neutrophil collagenase (Homo sapiens, UniProt P22894); experiment: Inhibitory concentration against human matrix metalloprotease-8 (human neutrophil collagenase, MMP-8)
[1] = Affinity ratio of IC50 of MMP-3 to IC50 of MMP-8
[2] = Affinity ratio of IC50 of MMP-8 to IC50 of MMP-3

Stromelysin-1, sequence (P08254 whole entry): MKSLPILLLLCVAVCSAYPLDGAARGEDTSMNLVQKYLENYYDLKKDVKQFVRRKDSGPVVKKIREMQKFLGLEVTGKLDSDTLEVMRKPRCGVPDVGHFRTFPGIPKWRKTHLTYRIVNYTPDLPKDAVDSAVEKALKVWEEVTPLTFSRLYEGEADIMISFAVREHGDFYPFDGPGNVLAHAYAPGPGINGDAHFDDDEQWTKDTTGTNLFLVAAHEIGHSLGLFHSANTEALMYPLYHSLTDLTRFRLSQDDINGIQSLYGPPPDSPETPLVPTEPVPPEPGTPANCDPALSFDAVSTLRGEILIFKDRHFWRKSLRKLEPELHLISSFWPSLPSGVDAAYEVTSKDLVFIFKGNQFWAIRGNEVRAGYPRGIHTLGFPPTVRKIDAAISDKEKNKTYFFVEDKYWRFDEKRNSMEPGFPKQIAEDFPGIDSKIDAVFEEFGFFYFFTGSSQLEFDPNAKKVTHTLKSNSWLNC
Neutrophil collagenase, sequence (P22894 whole entry): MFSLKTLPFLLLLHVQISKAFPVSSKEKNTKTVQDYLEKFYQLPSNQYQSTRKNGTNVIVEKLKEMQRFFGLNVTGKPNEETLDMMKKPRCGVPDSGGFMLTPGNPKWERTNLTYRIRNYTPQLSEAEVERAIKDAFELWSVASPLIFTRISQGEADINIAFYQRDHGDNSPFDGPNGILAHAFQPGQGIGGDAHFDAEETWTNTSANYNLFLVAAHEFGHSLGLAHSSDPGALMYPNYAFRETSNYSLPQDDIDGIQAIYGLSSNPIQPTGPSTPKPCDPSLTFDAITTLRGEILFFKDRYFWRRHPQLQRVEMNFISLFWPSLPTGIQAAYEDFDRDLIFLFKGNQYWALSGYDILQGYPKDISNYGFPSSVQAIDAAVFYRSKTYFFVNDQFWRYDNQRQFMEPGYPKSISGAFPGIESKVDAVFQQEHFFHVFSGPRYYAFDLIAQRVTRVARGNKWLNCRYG

Row | IC50 (Stromelysin-1; read-out: IC50) | IC50 (Neutrophil collagenase) | log10(IC50 MMP-3/IC50 MMP-8) [1] | IC50 (Stromelysin-1) | Selectivity [2] | Structure (SMILES)
1 | 40 nM | 10 nM | 0.6 |  |  | COc1ccc(S(=O)(=O)N2Cc3cc(NC(=O)[C@H](CC(=O)OC(C)(C)C)NC(=O)Cc4ccccc4)ccc3CC2C(=O)NO)cc1 (some centres not stated)
2 |  | 2000 nM |  | 10000 nM l-1 | 0.7 | COc1ccc(S(=O)(=O)N2Cc3cc(N)ccc3CC2C(=O)O)cc1 (configuration not stated)
3 | 20 nM | 2 nM | 1 |  |  | O=C(NO)C1Cc2ccccc2CN1S(=O)(=O)c1ccc(OCc2ccc(F)cc2)cc1 (configuration not stated)
4 | 30 nM | 8 nM | 0.57 |  |  | COc1ccc(S(=O)(=O)Oc2ccc3c(c2)CN(S(=O)(=O)c2ccc(OC)cc2)C(C(=O)NO)C3)cc1 (configuration not stated)
5 | 30 nM | 3 nM | 1 |  |  | O=C(c1ccccc1)c1ccc(S(=O)(=O)N2Cc3ccccc3CC2C(=O)NO)cc1 (configuration not stated)
6 | 2000 nM | 20 nM | 2 |  |  | CSc1nccc(-c2ccc(S(=O)(=O)N3Cc4ccccc4CC3C(=O)NO)s2)n1 (configuration not stated)
7 | 20 nM | 2 nM | 1 |  |  | CN(C)c1ccc(-c2ccc(S(=O)(=O)N3Cc4ccccc4CC3C(=O)NO)cc2)cc1 (configuration not stated)
8 | 30 nM | 2 nM | 1.18 |  |  | CN(C)c1ccc(Oc2ccc(S(=O)(=O)N3Cc4ccccc4CC3C(=O)NO)cc2)cc1 (configuration not stated)
9 | 400 nM | 30 nM |  |  | 1.12 | CC(C)(C)OC(=O)Nc1ccc2c(c1)CC(C(=O)O)N(S(=O)(=O)c1ccc(-c3ccc(F)cc3)cc1)C2 (configuration not stated)
10 | 400 nM | 200 nM | 0.3 |  |  | CN(C)c1cccc2c(S(=O)(=O)N3Cc4ccccc4CC3C(=O)NO)cccc12 (configuration not stated)
11 | 20 nM | 2 nM | 1 |  |  | O=C(NO)C1Cc2ccccc2CN1S(=O)(=O)c1ccc(Oc2ccccc2)cc1 (configuration not stated)
12 | 20 nM | 2 nM | 1 |  |  | CCOC(=O)Oc1ccc2c(c1)CN(S(=O)(=O)c1ccc(OC)cc1)C(C(=O)NO)C2 (configuration not stated)
13 | 20 nM | 2 nM | 1 |  |  | Nc1ccc2c(c1)CN(S(=O)(=O)c1ccc(-c3ccc(F)cc3)cc1)C(C(=O)NO)C2 (configuration not stated)
14 |  | 2000 nM |  | 10000 nM l-1 | 0.7 | COc1ccc(S(=O)(=O)N2Cc3cc(NC(=O)[C@H](C)N)ccc3CC2C(=O)O)cc1 (some centres not stated)
15 | 10 nM | 1 nM | 1 |  |  | COc1ccc(S(=O)(=O)N2Cc3cc(O)ccc3CC2C(=O)NO)cc1 (configuration not stated)
16 |  | 2000 nM | 0.7 | 10000 nM l-1 |  | O=C(NO)C1Cc2ccccc2CN1S(=O)(=O)c1cc(S(=O)(=O)c2ccccc2)cs1 (configuration not stated)
17 | 700 nM | 80 nM | 0.94 |  |  | COC(=O)c1csc(S(=O)(=O)N2Cc3ccccc3CC2C(=O)NO)c1OC (configuration not stated)
18 | 500 nM | 40 nM | 1.1 |  |  | O=C(NO)C1Cc2ccccc2CN1S(=O)(=O)c1ccc2[nH]c(-c3ccccc3)nc2c1 (configuration not stated)
19 |  | 500 nM | 1.3 | 10000 nM l-1 |  | O=C(NO)C1Cc2ccccc2CN1S(=O)(=O)c1cc(Br)c(Br)s1 (configuration not stated)

Row | IC50 (Stromelysin-1; read-out: IC50) | IC50 (Neutrophil collagenase) | log10(IC50 MMP-3/IC50 MMP-8) [1] | IC50 (Stromelysin-1) | Selectivity [2] | Structure (SMILES)
20 | 20 nM | 3 nM | 0.82 |  |  | O=C(NO)C1Cc2ccccc2CN1S(=O)(=O)c1ccc(-c2ccc(Cl)cc2)cc1 (configuration not stated)
21 | 6000 nM | 800 nM | 0.88 |  |  | O=C(NCc1csc(S(=O)(=O)N2Cc3ccccc3CC2C(=O)NO)c1)c1ccccc1 (configuration not stated)
22 |  | 3000 nM | 0.52 | 10000 nM l-1 |  | CCCCCCCCCCCCCCCCS(=O)(=O)N1Cc2ccccc2CC1C(=O)NO (configuration not stated)
23 | 50 nM | 8 nM | 0.8 |  |  | O=C(NO)C1Cc2ccccc2CN1S(=O)(=O)c1ccc(-c2ccon2)s1 (configuration not stated)
24 | 100 nM | 10 nM | 1 |  |  | O=C(NO)C1Cc2ccccc2CN1S(=O)(=O)c1ccc2oc3ccccc3c2c1 (configuration not stated)
25 | 3000 nM | 200 nM | 1.18 |  |  | COc1ccc(OC(=O)Nc2cccc(S(=O)(=O)N3Cc4ccccc4CC3C(=O)NO)c2)cc1 (configuration not stated)
26 | 300 nM | 100 nM | 0.48 |  |  | O=C(NO)C1Cc2ccccc2CN1S(=O)(=O)c1ccc(N2CCOCC2)cc1 (configuration not stated)
27 | 20 nM | 3 nM | 0.82 |  |  | COc1ccc(S(=O)(=O)N2Cc3cc(NC(=O)OC(C)(C)C)ccc3CC2C(=O)NO)cc1 (configuration not stated)
28 | 20 nM | 2 nM | 1 |  |  | COc1ccc(S(=O)(=O)N2Cc3cc(NC(=O)[C@H](C)NC(=O)OC(C)(C)C)ccc3CC2C(=O)NO)cc1 (some centres not stated)
29 |  |  |  | 10000 nM l-1 | 0.4 | O=C(O)[C@@H]1Cc2ccccc2CN1S(=O)(=O)c1ccc(-c2ccc(F)cc2)cc1
30 | 900 nM | 30 nM | 1.48 |  |  | O=C(NO)C1Cc2ccccc2CN1S(=O)(=O)CCc1ccncc1 (configuration not stated)
31 | 500 nM | 50 nM | 1 |  |  | O=C(NO)C1Cc2ccccc2CN1S(=O)(=O)c1ccc(C(F)(F)F)cc1 (configuration not stated)
32 | 100 nM | 10 nM | 1 |  |  | CC(C)(C)OC(=O)Nc1ccc2c(c1)CN(S(=O)(=O)c1ccc(-c3ccc(F)cc3)cc1)C(C(=O)NO)C2 (configuration not stated)
33 | 400 nM | 70 nM | 0.76 |  |  | O=C(NO)C1Cc2ccccc2CN1S(=O)(=O)c1ccc2ccccc2c1 (configuration not stated)
34 |  | 3000 nM |  | 10000 nM l-1 | 0.52 | COc1ccc(S(=O)(=O)N2Cc3cc(O)ccc3CC2C(=O)O)cc1 (configuration not stated)
35 | 30 nM | 2 nM | 1.18 |  |  | CCCCOc1ccc(S(=O)(=O)N2Cc3ccccc3CC2C(=O)NO)cc1 (configuration not stated)
36 | 400 nM |  |  |  | 1.3 | O=C(O)[C@H]1Cc2ccccc2CN1S(=O)(=O)c1ccc(-c2ccc(F)cc2)cc1
37 |  | 1000 nM | 1 | 10000 nM l-1 |  | COc1ccc(S(=O)(=O)N2Cc3ncn(C)c3C[C@@H]2C(=O)O)cc1
38 | 20 nM | 40 nM | -0.3 |  |  | COc1ccc(S(=O)(=O)N2Cc3cc(NC(=O)CCC(=O)O)ccc3CC2C(=O)NO)cc1 (configuration not stated)

Reference: ChEMBL document CHEMBL1132460, “Affinity and selectivity of matrix metalloproteinase inhibitors: a chemometrical study from the perspective of ligands and proteins” (J Med Chem, 1999)
